According to ChEMBL document CHEMBL1128323, “Antifungal agents. 9. 3-Aryl-4-[alpha-(1H-imidazol-1-yl)arylmethyl]pyrroles: a new class of potent anti-Candida agents” (1995):
≈ marks a conversion by molar mass, not a printed value.

Tests used:
Assay type in all cases: functional
Candida [1] = assay: Percent resistance against all Candida. species (40 clinical isolates) at 256 micro g/mL (pH=7.2), activity is expressed as R%.
Candida albicans [2] = assay: Percent resistance against Candida albicans (40 clinical isolates) at 256 micro g/mL (pH=5.8), activity is expressed as R%.
Candida albicans [3] = assay: Inhibitory activity against Candida albicans (40 clinical isolates), determined at pH-5.8
Candida [4] = assay: Inhibitory activity against Candida. species. (40 clinical isolates), determined at pH-7.2
Candida albicans [5] = assay: Inhibitory activity against the Candida albicans (40 clinical isolates), determined at pH-7.2
Candida [6] = assay: Resistance against all Candida. species (40 clinical isolates) at 256 micro g/mL (pH=5.8). Activity is expressed as R%.
Candida albicans [7] = assay: Resistance against Candida. albicans (40 clinical isolates) at 256 ug/mL (pH=7.2), activity is expressed as R%.
Candida albicans [8] = assay: Inhibitory activity against Candida albicans (40 clinical isolates), determined at pH-7.2
Candida albicans [9] = assay: 50% inhibitory activity against Candida albicans (40 clinical isolates) determined at pH-7.2; conditions: Candida albicans; read-out: MIC50
Candida [10] = assay: 90% inhibitory activity against Candida. species (40 clinical isolates) determined at pH-7.2
Candida albicans [11] = assay: 50% inhibitory activity against Candida albicans (40 clinical isolates) determined at pH-5.8
Candida [12] = assay: 50% inhibitory activity against the Candida. species (40 clinical isolates) was determined at pH-7.2
Candida [13] = assay: Inhibitory activity against Candida. species (40 clinical isolates), determined at pH-5.8
Candida albicans [14] = assay: Inhibitory activity against the Candida albicans (40 clinical isolates), determined at pH-5.8
Candida [15] = assay: Inhibitory activity against Candida. species. (40 clinical isolates), determined at pH-5.8

SMILES | R (Candida [1]) [%] | R (Candida albicans [2]) [%] | MIC (Candida albicans [3]) [µg/mL] | MIC (Candida [4]) [µg/mL] | MIC90 (Candida albicans [5]) [µg/mL] | R (Candida [6]) [%] | R (Candida albicans [7]) [%] | MIC (Candida albicans [8]) [µg/mL] | MIC50 (Candida albicans [9]) [µg/mL] | MIC90 (Candida [10]) [µg/mL] | MIC50 (Candida albicans [11]) [µg/mL] | MIC50 (Candida [12]) [µg/mL] | MIC50 (Candida [13]) [µg/mL] | MIC90 (Candida [13]) [µg/mL] | MIC90 (Candida albicans [14]) [µg/mL] | MIC (Candida [15]) [µg/mL]
Clc1ccc(-c2c[nH]cc2C(c2cccc3ccccc23)n2ccnc2)cc1 (stereo not drawn) | 0 | 0 | 11.2 (≈ 29.2 µM) | 29 (≈ 75.5 µM) | 16 (≈ 41.7 µM) | 0 | 0 | 10.1 (≈ 26.3 µM) | 1 (≈ 2.6 µM) | 32 (≈ 83.4 µM) | 4 (≈ 10.4 µM) | 16 (≈ 41.7 µM) | 8 (≈ 20.8 µM) | 32 (≈ 83.4 µM) | 16 (≈ 41.7 µM) | 16.6 (≈ 43.2 µM)
Clc1ccc(C(c2c[nH]cc2-c2ccccc2Cl)n2ccnc2)cc1Cl (stereo not drawn) | 0 | 0 | 13.8 (≈ 34.3 µM) | 36.2 (≈ 89.9 µM) | 32 (≈ 79.5 µM) | 0 | 0 | 12.7 (≈ 31.5 µM) | 16 (≈ 39.7 µM) | 64 (≈ 159 µM) | 8 (≈ 19.9 µM) | 32 (≈ 79.5 µM) | 32 (≈ 79.5 µM) | 32 (≈ 79.5 µM) | 32 (≈ 79.5 µM) | 24.8 (≈ 61.6 µM)
Clc1ccc(-c2c[nH]cc2C(c2ccc(Cl)c(Cl)c2)n2ccnc2)c(Cl)c1 (stereo not drawn) | 0 | 0 | 7.2 (≈ 16.5 µM) | 21.3 (≈ 48.7 µM) | 32 (≈ 73.2 µM) | 0 | 0 | 19.6 (≈ 44.8 µM) | 16 (≈ 36.6 µM) | 32 (≈ 73.2 µM) | 2 (≈ 4.58 µM) | 16 (≈ 36.6 µM) | 16 (≈ 36.6 µM) | 16 (≈ 36.6 µM) | 32 (≈ 73.2 µM) | 14.2 (≈ 32.5 µM)
Cc1ccc(C(c2c[nH]cc2-c2ccc(Cl)cc2)n2ccnc2)cc1 (stereo not drawn) | 0 | 0 | 12.3 (≈ 35.4 µM) | 23.1 (≈ 66.4 µM) | 32 (≈ 92 µM) | 0 | 0 | 18.9 (≈ 54.3 µM) | 16 (≈ 46 µM) | 32 (≈ 92 µM) | 16 (≈ 46 µM) | 16 (≈ 46 µM) | 16 (≈ 46 µM) | 32 (≈ 92 µM) | 32 (≈ 92 µM) | 20.4 (≈ 58.6 µM)
Clc1ccc(-c2c[nH]cc2C(c2ccccc2)n2ccnc2)c(Cl)c1 (stereo not drawn) | 0 | 0 | 8.4 (≈ 22.8 µM) | 16.6 (≈ 45.1 µM) | 16 (≈ 43.4 µM) | 0 | 0 | 5.4 (≈ 14.7 µM) | 2 (≈ 5.43 µM) | 32 (≈ 86.9 µM) | 4 (≈ 10.9 µM) | 16 (≈ 43.4 µM) | 32 (≈ 86.9 µM) | 32 (≈ 86.9 µM) | 16 (≈ 43.4 µM) | 23.5 (≈ 63.8 µM)
Nc1ccc(C(c2c[nH]cc2-c2ccccc2Cl)n2ccnc2)cc1 (stereo not drawn) | 50 | 0 | 100 (≈ 288 µM) | > 222 | 256 (≈ 734 µM) | 50 | 0 | 131 (≈ 376 µM) | 64 (≈ 183 µM) | 256 (≈ 734 µM) | 64 (≈ 183 µM) | 256 (≈ 734 µM) | 256 (≈ 734 µM) | 256 (≈ 734 µM) | 256 (≈ 734 µM) | 201 (≈ 576 µM)
Clc1ccc(-c2c[nH]cc2C(c2ccc(-c3ccccc3)cc2)n2ccnc2)cc1 (stereo not drawn) | 60 | 0 | > 26.5 | > 352 | 256 (≈ 625 µM) | 0 | 40 | > 150 | 64 (≈ 156 µM) | > 256 | 8 (≈ 19.5 µM) | > 256 | 32 (≈ 78.1 µM) | 128 (≈ 312 µM) | 256 (≈ 625 µM) | 28.4 (≈ 69.3 µM)
Clc1ccc(-c2c[nH]cc2C(c2ccc(Cl)cc2)n2ccnc2)cc1 (stereo not drawn) | 0 | 0 | 12.3 (≈ 33.4 µM) | 21.3 (≈ 57.8 µM) | 32 (≈ 86.9 µM) | 0 | 0 | 16.3 (≈ 44.3 µM) | 16 (≈ 43.4 µM) | 32 (≈ 86.9 µM) | 8 (≈ 21.7 µM) | 16 (≈ 43.4 µM) | 16 (≈ 43.4 µM) | 32 (≈ 86.9 µM) | 32 (≈ 86.9 µM) | 20.2 (≈ 54.9 µM)
